According to US20060079550A1, “Amino acid derivatives useful for the treatment of alzheimer's disease” (priority 2001, published 2006):

biological target: aspartyl proteases, in particular, beta-secretase; test: Ki of the compounds listed in Tables 1 and 2 (no method described); format: biochemical; conditions: Table 1, compounds of formula Ia, W is -(CH2)n-

| Compound | Ki |
| --- | --- |
| Cc1ccc(S(=O)(=O)N(CC(C)C)[C@@H](CCCCNC(=O)CCc2ccccc2)C(=O)O)cc1 [compound 91] | 8 nM |
| COc1cccc(C=CC(=O)NCCCC[C@@H](C(=O)O)N(CC(C)C)S(=O)(=O)c2ccc([N+](=O)[O-])cc2)c1OC [compound 110, Nα-isobutyl-Nα-(4-nitrobenzenesulfonyl)-Nε-(2,3-dimethoxycinnamoyl)-L-lysine] | > 300 nM |
| CC(C)CN([C@@H](CCCCNS(=O)(=O)c1ccc([N+](=O)[O-])cc1)C(=O)O)S(=O)(=O)c1ccc([N+](=O)[O-])cc1 [compound 116, Nα-isobutyl-Nα,Nε-di-(4-nitrobenzenesulfonyl)-L-lysine] | > 300 nM |
| Nα-(9-fluorenylmethoxycarbonyl)-L-lysyl-Nα-(9-fluorenylmethoxy-carbonyl)-Nε-(2,4,6trimethylbenzenesulfonyl)-L-lysine [compound 26] | 63000 nM |
